Source: patent US9480259B2, “Pyrazolopyrans having herbicidal and pharmaceutical properties” (BASF SE, priority 2012, dated 2016)

Target: Arabidopsis thaliana SHMT
Assay: SHMT activity assay (ED50 SHMT), coupled with N5,N10-CH2-THF dehydrogenase, NADH at 340 nm
Format: biochemical
Settings: Table 2; values given as upper bounds
Protocol: Determination of the ED50 SHMT was carried out as described hereinunder.
Purification of Arabidopsis thaliana SHMT
The following buffers were used during the purification protocol:
Buffer A (Lysis and Wash Buffer): • 20 mM Na-Phosphat (pH 7,4) • 500 mM NaCI • 40 mM Imidazole • 1.0 mM L-Serine • 0.5 mM Pyridoxal-5-phosphate • 0.5 mM DTT
Buffer B (Elution Buffer): • 20 mM Na-Phosphat (pH 7,4) • 500 mM NaCl • 250 mM Imidazole • 1.0 mM L-Serine • 0.5 mM Pyridoxal-5-phosphate • 0.5 mM DTT
All procedures were conducted at 4° C. or on ice. Pellets were suspended in Buffer A containing 1 mg/ml DNAse +Complete EDTA-free protease inhibitor tablet. Cells were lysed using sonication or a French Press device, using standard settings. Lysis was centrifuged at 40000×g for 25 minutes. The supernatant was filtered (0.22 μM) before loading onto a Ni-NTA column.
A gravity flow column containing Ni-NTA resin was equilibrated with 10 CV Buffer A and loaded with filtered cell lysate. The column was then washed with 10 CV Buffer A. Elution was afforded using Buffer B and collected manually as mini-factions. EDTA was added after elution to a final concentration of 1 mM. Fractions were pooled on the basis of the correct band for SHMT visualised via SDS-PAGE and staining.
SHMT Assay Buffer: • 50 mM KH2PO4 (pH 7,4) • 2.0 mM NAD+ • 7.5 mM DTT • 0.3 mM Tetrahydrofolic acid • 4% DMSO
Reaction Start: 20 mM L-Serine
The rate of N5,N10-CH2-THF formation catalyzed by SHMT was monitored at 340 nm by coupling with excess N5,N10-CH2-THF dehydrogenase, which converts NAD+to NADH. Reactions were initiated by adding 20 mM L-Serine. Inhibition of initial velocity was determined by adding various inhibitors of the SHMT reaction and monitored as described. Reactions were measured in a Bio Tek micro titer plate reader following the change in absorption with the formation of NADH for 30 mimnutes.

SMILES | EC50 [nM]
CCC1(c2cc(Cl)cc(Cl)c2)C(C#N)=C(N)Oc2[nH]nc(C(C)C)c21 (stereo not shown) [Compound 2.132.] | < 1000
CCC1(c2cc(Cl)cc(Cl)c2)C(C#N)=C(N)Oc2[nH]nc(C3CC3)c21 (stereo not shown) [Compound 2.133.] | < 1000
Cc1n[nH]c2c1C(c1ccc(F)c(Cl)c1)(C(C)C)C(C#N)=C(N)O2 (stereo not shown) [Compound 2.134.] | < 100
Cc1n[nH]c2c1C(c1ccc(Cl)c(Cl)c1)(C(C)C)C(C#N)=C(N)O2 (stereo not shown) [Compound 2.135.] | < 100
CC(C)C1(c2cc(Cl)cc(Cl)c2)C(C#N)=C(N)Oc2[nH]nc(C3CC3)c21 (stereo not shown) [Compound 2.136.] | < 100
Cc1n[nH]c2c1C(c1cccc(C(F)(F)F)c1)(C(C)C)C(C#N)=C(N)O2 (stereo not shown) [Compound 2.137.] | < 100
Cc1n[nH]c2c1C(c1ccc(Cl)cc1)(C1CCC1)C(C#N)=C(N)O2 (stereo not shown) [Compound 2.138.] | < 1000
CCc1n[nH]c2c1C(c1ccc(Cl)cc1)(C1CCC1)C(C#N)=C(N)O2 (stereo not shown) [Compound 2.139.] | < 1000
N#CC1=C(N)Oc2[nH]nc(C3CC3)c2C1(c1ccc(Cl)cc1)C1CCC1 (stereo not shown) [Compound 2.140.] | < 10000
Cc1n[nH]c2c1C(CC(C)C)(c1ccc(Cl)c(Cl)c1)C(C#N)=C(N)O2 (stereo not shown) [Compound 2.141.] | < 1000
Cc1n[nH]c2c1C(CC(C)C)(c1ccc(Cl)cc1)C(C#N)=C(N)O2 (stereo not shown) [Compound 2.142.] | < 10000
Cc1n[nH]c2c1C(c1ccc(Cl)cc1)(C(C)C)C(C#N)=C(N)O2 (stereo not shown) [Compound 2.143.] | < 1000
COc1ccc(C2(C(C)C)C(C#N)=C(N)Oc3[nH]nc(C)c32)cc1C(F)(F)F (stereo not shown) [Compound 2.144.] | < 10
Cc1n[nH]c2c1C(c1cc(Cl)cc(Br)c1)(C1CC1)C(C#N)=C(N)O2 (stereo not shown) [Compound 2.146.] | < 100
CCc1n[nH]c2c1C(c1ccc(OC)c(Cl)c1)(C(C)C)C(C#N)=C(N)O2 (stereo not shown) [Compound 2.147.] | < 1000
COc1ccc(C2(C(C)C)C(C#N)=C(N)Oc3[nH]nc(C4CC4)c32)cc1Cl (stereo not shown) [Compound 2.148.] | < 1000

SMILES | EC50 [nM]
COc1ccc(C2(C3CC3)C(C#N)=C(N)Oc3[nH]nc(C)c32)cc1Cl (stereo not shown) [Compound 2.149.] | < 100
COc1ccc(C2(C3CC3)C(C#N)=C(N)Oc3[nH]nc(C)c32)cc1C(F)(F)F (stereo not shown) [Compound 2.150.] | < 100
CCc1n[nH]c2c1C(c1ccc(OC)c(Cl)c1)(C1CC1)C(C#N)=C(N)O2 (stereo not shown) [Compound 2.151.] | < 1000
CCc1n[nH]c2c1C(c1ccc(OC)c(C(F)(F)F)c1)(C1CC1)C(C#N)=C(N)O2 (stereo not shown) [Compound 2.152.] | < 1000
Cc1n[nH]c2c1C(c1cc(Cl)cc(Oc3ccccc3)c1)(C1CC1)C(C#N)=C(N)O2 (stereo not shown) [Compound 2.153.] | < 100
Cc1n[nH]c2c1C(c1cc(Cl)cc(Cl)c1)(C1CCC1)C(C#N)=C(N)O2 (stereo not shown) [Compound 2.154.] | < 10
CCc1n[nH]c2c1C(c1cc(Cl)cc(Cl)c1)(C1CCC1)C(C#N)=C(N)O2 (stereo not shown) [Compound 2.155.] | < 100
Cc1n[nH]c2c1C(c1cc(F)cc(Cl)c1)(C1CCC1)C(C#N)=C(N)O2 (stereo not shown) [Compound 2.157.] | < 100
CCC1(c2ccc(Oc3ccc(C(F)(F)F)cc3Cl)c(C)c2)C(C#N)=C(N)Oc2[nH]nc(C3CC3)c21 (stereo not shown) [Compound 2.164.] | < 10000
CCC1(c2cccc(Cl)c2)C(C#N)=C(N)Oc2[nH]nc(C(F)F)c21 (stereo not shown) [Compound 2.165.] | < 1000
CCC1(c2cc(C(F)(F)F)cc(C(F)(F)F)c2)C(C#N)=C(N)Oc2[nH]nc(C(F)F)c21 (stereo not shown) [Compound 2.166.] | < 100
COc1ccc(C2(C(C)C)C(C#N)=C(N)Oc3[nH]nc(C)c32)cc1 (stereo not shown) [Compound 2.167.] | < 1000
N#CC1=C(N)Oc2[nH]nc(C(F)F)c2C1(c1cc(Cl)cc(Cl)c1)C1CCC1 (stereo not shown) [Compound 2.168.] | < 100
Cc1n[nH]c2c1C(c1cccc(C(F)(F)F)c1)(C1CCC1)C(C#N)=C(N)O2 (stereo not shown) [Compound 2.169.] | < 10
CCc1n[nH]c2c1C(c1cccc(C(F)(F)F)c1)(C1CCC1)C(C#N)=C(N)O2 (stereo not shown) [Compound 2.170.] | < 100
